Experimental data from PMC5656517 (European journal of pharmaceutical sciences : official …, 2017).
≈ marks a conversion by molar mass, not a printed value. Read-outs that look alike come from different tables or passages of the source.

Key:
[1] = test system: CYP3A4 (testosterone); details: ref He et al. (2015); cited from earlier work
[2] = biological target: T1, CYP3A4 (Homo sapiens, UniProt P08684); experiment: Effect of washing to restore CYP3A4 activity, recombinant CYP3A4; format: in vitro ADME; details: recombinant CYP3A4, 10 µM, 30 min preincubation, washed 3 times, midazolam
Target sequence in this assay (P08684 2-503 limits assumed): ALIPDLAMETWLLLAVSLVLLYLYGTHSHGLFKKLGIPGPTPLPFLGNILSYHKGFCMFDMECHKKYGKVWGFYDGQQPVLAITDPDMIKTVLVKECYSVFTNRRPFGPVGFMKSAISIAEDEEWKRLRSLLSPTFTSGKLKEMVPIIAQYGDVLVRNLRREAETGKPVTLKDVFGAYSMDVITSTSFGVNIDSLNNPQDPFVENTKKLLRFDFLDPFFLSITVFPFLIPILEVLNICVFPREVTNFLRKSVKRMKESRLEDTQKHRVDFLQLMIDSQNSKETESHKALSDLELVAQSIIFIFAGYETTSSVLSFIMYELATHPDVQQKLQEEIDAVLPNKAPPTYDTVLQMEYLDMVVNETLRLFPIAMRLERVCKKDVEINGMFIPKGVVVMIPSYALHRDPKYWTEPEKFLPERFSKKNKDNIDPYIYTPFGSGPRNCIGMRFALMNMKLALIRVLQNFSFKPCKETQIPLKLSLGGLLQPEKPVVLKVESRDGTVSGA

[3] = biological target: T2, CYP1A2 (Homo sapiens, UniProt P05177); experiment: Single concentration; details: human liver microsomes
T2 sequence (P05177 1-516): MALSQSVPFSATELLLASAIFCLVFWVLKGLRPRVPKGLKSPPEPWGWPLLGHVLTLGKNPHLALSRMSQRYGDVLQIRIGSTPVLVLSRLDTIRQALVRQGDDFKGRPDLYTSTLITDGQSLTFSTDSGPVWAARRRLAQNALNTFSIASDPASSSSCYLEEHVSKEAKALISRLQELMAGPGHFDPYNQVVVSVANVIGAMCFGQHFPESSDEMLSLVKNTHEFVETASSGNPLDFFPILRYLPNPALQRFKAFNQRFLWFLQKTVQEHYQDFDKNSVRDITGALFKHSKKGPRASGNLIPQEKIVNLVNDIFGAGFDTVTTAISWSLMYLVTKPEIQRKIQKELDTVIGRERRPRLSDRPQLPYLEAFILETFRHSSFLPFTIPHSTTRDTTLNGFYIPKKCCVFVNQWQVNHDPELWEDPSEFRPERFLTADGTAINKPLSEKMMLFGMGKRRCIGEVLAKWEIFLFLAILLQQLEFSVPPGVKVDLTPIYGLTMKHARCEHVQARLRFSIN

[4] = test system: CYP2C; details: ref He et al. (2015); cited from earlier work
[5] = biological target: T3, CYP2C8 (Homo sapiens, UniProt P10632); experiment: Single concentration; details: human liver microsomes
T3 sequence (P10632 1-490): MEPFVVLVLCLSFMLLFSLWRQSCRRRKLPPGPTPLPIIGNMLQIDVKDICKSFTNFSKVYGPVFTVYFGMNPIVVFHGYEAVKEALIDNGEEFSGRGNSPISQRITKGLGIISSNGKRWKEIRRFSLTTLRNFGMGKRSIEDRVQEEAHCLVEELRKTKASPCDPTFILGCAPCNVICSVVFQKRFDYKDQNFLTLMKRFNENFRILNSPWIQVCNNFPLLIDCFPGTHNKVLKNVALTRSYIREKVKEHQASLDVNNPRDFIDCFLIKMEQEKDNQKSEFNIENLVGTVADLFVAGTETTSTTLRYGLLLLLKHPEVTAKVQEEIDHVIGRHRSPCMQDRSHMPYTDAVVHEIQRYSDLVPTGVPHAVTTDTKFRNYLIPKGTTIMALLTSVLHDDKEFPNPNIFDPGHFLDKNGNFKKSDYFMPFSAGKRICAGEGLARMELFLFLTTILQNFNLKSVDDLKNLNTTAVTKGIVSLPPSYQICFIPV

[6] = biological target: T1, CYP3A4; format: in vitro ADME; details: human liver microsomes, 100 µM
Target sequence in this assay (P08684 whole entry): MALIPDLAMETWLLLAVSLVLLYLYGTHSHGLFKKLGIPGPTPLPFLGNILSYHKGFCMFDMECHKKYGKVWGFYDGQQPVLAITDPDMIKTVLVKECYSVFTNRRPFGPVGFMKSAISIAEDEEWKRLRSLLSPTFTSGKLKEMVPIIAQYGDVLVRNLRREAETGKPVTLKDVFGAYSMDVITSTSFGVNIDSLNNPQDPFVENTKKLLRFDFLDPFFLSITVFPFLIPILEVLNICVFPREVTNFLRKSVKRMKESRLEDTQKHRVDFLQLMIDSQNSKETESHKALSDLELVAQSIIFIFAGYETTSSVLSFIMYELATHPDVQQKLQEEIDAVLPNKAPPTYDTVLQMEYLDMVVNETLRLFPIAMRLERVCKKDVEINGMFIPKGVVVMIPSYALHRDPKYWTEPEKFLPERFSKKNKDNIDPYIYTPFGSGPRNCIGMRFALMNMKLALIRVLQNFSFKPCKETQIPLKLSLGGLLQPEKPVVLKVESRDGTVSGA

[7] = test system: cytochrome P450 enzymes; experiment: Single concentration; details: test concentration of 10 µM
[8] = biological target: T4, CYP2C19 (Homo sapiens, UniProt P33261); details: human liver microsomes, substrate (S)-mephenytoin, mean ± standard deviation
T4 sequence (P33261 whole entry): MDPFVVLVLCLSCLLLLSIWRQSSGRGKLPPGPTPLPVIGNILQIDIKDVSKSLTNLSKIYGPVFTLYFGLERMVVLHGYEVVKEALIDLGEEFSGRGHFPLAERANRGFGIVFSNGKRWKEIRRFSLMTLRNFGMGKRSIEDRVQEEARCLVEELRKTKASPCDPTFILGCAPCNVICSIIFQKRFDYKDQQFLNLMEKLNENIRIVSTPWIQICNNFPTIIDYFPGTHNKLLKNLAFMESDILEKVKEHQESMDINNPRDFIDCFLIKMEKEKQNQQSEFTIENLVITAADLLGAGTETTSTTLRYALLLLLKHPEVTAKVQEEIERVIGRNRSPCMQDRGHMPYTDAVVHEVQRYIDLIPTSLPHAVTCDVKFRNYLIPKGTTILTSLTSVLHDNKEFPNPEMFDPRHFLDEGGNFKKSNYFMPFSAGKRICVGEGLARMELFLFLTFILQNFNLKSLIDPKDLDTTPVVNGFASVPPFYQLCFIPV

[9] = biological target: CYP2C9 (Homo sapiens, UniProt P11712); experiment: Cocktail assay IC50 determination in human liver microsomes
Chain of CYP2C9 (P11712 whole entry): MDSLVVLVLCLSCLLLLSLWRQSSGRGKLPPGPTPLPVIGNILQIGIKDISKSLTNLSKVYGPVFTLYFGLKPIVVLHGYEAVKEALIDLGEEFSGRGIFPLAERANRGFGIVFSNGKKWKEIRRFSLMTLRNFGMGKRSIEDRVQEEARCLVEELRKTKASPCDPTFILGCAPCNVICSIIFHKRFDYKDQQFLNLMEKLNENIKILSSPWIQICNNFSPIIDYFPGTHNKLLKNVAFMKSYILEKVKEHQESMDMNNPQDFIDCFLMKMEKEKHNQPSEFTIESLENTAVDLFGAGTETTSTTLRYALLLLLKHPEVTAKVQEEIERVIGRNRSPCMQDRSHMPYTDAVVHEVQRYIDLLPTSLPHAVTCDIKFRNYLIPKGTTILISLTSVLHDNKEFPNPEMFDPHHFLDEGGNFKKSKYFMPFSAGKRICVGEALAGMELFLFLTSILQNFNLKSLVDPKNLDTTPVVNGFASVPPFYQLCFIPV

[10] = biological target: T1, CYP3A4; experiment: Single point time-dependent inhibition screening assay in human liver microsomes
Target sequence in this assay (P08684 whole entry): as the sequence (P08684 whole entry) above

[11] = biological target: T2, CYP1A2; details: ref He et al. (2015); cited from earlier work
[12] = biological target: T3, CYP2C8; experiment: Cocktail assay IC50 determination in human liver microsomes; details: substrate amodiaquine, mean ± standard deviation
[13] = biological target: T5, CYP2B6 (Homo sapiens, UniProt P20813); experiment: as above; details: substrate bupropion, mean ± standard deviation
T5 sequence (P20813 1-491): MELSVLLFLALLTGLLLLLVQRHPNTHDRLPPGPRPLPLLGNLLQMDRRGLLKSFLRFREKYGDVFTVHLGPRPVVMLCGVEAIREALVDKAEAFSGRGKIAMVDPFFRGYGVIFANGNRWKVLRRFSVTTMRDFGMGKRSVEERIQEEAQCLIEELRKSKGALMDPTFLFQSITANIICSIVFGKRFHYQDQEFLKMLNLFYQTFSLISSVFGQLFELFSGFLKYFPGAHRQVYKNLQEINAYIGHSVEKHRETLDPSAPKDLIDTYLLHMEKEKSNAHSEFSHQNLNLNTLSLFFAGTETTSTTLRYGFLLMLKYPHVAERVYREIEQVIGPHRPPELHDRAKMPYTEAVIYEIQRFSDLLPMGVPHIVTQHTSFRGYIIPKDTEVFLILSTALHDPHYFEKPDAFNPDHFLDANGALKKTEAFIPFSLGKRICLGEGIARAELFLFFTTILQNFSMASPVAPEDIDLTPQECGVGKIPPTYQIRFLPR

[14] = biological target: T4, CYP2C19; experiment: Single concentration; details: human liver microsomes

For C=CC(C)(C)c1cc(/C=C/C(=O)c2ccc(O)cc2)c(OC)cc1O [Licochalcone A, licochalcone A], the “inhibition of CYP3A4 (testosterone), in words” value [1] is given as “strongly inhibited”, the “remaining enzyme activity after washing out the inhibitor” value [2] is given as 16.7% and the “inhibition of CYP1A2 at 10 µM, in words” value [3] is given as “weakly inhibited”. The “inhibition of CYP2C, in words” value [4] was “strongly inhibited”, the “inhibition of CYP2C8 at 10 µM, in words” value [5] was “strongly inhibited” and the “% Control activity” value ([6]; NADPH, 2 mM glutathione) was 38.5%. For the same molecule, the “% Control activity” value ([6]; NADPH, 1000 U/mL catalase) was 42.4%, the “% Control activity” value ([6]; NADPH, 1000 U/mL superoxide dismutase) was 46.9% and the “% Control activity” value ([6]; NADPH, mean of two experiments) was 49.5%. The “% Control activity” value ([6]; without NADPH, mean of two experiments) was 100%, the “inhibition of one or more cytochrome P450 enzymes” value [7] was “more than 50%” and the “IC50, CYP2C19” value [8] was 3.60 ± 0.79 µg/mL (≈ 10.6 µM). For the same molecule, the “IC50, CYP2C9” value ([9]; lower end of the range of IC50 values) was “high nM levels”, the “IC50, CYP2C9” value ([9]; substrate tolbutamide, mean ± standard deviation) was 0.78 ± 0.09 µg/mL (≈ 2.3 µM) and the “time-dependent inhibition of CYP3A4 (midazolam), in words” value [10] was “demonstrated time-dependent inhibition”. The “inhibition of CYP1A2, in words” value [11] was “strongly inhibited”, the “IC50, CYP2C8” value [12] was 1.05 ± 0.08 µg/mL (≈ 3.1 µM) and the “IC50, CYP2B6” value [13] was 17.96 ± 4.58 µg/mL (≈ 53.1 µM). For the same molecule, the “inhibition of CYP2C19 at 10 µM, in words” value [14] was “moderate inhibitor”.
